Assay results reported in patent US20210139477A1, “ALK5 INHIBITORS, CONJUGATES, AND USES THEREOF” (Silverback Therapeutics, Inc., priority 2019, published 2021).
pEC50, pIC50: −log10 of the molar value.

How the values were obtained:
[1] = test system: TGFb/SMAD Signaling Pathway SBE reporter cell line; experiment: TGFb reporter assay (TGFb/SMAD Signaling Pathway SBE luciferase reporter cell line); type: cell-based; settings: 5-6 h preincubation, then TGFb, 18 h, luciferase luminescence
Method: TGFβ/SMAD Signaling Pathway SBE reporter cell line was obtained from BPS Bioscience. Cells were passed, expanded, and stored in liquid nitrogen as per the supplier's instructions with the exception that growth media is changed to DMEM-C with Geneticin (DMEM supplemented with 10% fetal bovine serum, 1×NEAA, 1 mM Pyruvate, 2 mM glutamine, 50 μg/mL penicillin, 50 U/mL streptomycin and 400 μg/mL of Geneticin). The assay media was MEM supplemented with 0.5% fetal bovine serum, 1×NEAA, 1 mM Pyruvate, 50 μg/mL penicillin and 50 U/mL streptomycin.
TGFb/SMAD Signaling Pathway SBE reporter cell line was obtained from BPS Bioscience. Cells were passed/expanded/stored in liquid nitrogen per supplier's instruction with the exception that growth media was changed to DMEM-C with Geneticin (DMEM supplemented with 10% fetal bovine serum, IX NEAA, 1 mM Pyruvate, 2 mM glutamine, 50 μg/mL penicillin, 50 U/mL streptomycin and 400 ug/mL of Geneticin). The assay media was MEM supplemented with 0.5% fetal bovine serum, IX NEAA, 1 mM Pyruvate, 50 μg/mL penicillin and 50 U/mL streptomycin.
Reporter cells were harvested from the tissue culture flasks by incubation in small quantity of Versene at room temperature for three to five minutes after the media in the flask was removed and cells rinsed with PBS. Cells were counted and diluted in the assay media at 0.8×10^6 cells/mL then 50 uL/well were added to 96-well assay plate. Test samples (at desired concentrations diluted in assay media) were added to assay plate containing the 50 uL/well of cells (or media only), 50 uL per well, and incubated for 5-6 hours at 37° C. in a 5% CO2 humidified incubator. After that time, 15 uL of TGFb diluted to 12.5 ng/mL in the assay media was added to the plate. Controls included TGFb titration (from 25 to 0 ng/mL) without inhibitors, and media only (without cells, inhibitor or TGFb). Plates were incubated at 37° C. in a […] humidified incubator for 18 h. Luciferase substrate solution was subsequently added at 75 uL per well, incubated in dark with shaking at room temperature for 10 min, and luminescence was measured using a luminometer.

ALK5 = target: T1, ALK5 (Homo sapiens, UniProt P36897); experiment: ALK5 enzyme inhibition assay (Reaction Biology Corp, 33P-ATP filter-binding, casein substrate); type: biochemical; settings: 10 uM ATP, 2 hours at room temperature
T1 construct: purchased Reaction Biology Corp (Malvern, Pa.)
T1 sequence (P36897 34-503): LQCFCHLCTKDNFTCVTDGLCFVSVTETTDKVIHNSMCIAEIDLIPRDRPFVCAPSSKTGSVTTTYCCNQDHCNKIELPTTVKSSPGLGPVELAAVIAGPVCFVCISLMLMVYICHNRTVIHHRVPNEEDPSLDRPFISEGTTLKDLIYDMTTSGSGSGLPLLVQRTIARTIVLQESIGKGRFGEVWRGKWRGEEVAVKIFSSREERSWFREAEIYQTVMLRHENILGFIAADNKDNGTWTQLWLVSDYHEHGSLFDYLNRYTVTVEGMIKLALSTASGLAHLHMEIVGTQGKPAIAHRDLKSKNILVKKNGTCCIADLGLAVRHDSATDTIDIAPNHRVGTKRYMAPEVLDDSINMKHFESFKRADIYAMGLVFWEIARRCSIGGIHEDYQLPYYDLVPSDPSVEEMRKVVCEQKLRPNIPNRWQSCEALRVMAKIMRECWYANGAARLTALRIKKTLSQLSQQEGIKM
Method: ALK5 enzyme inhibition assays were performed by Reaction Biology Corp (Malvern, Pa.). 1 mg/mL of peptide substrate (casein) and 10 uM ATP were prepared in a mixture of fresh reaction buffer. The kinase was delivered into the substrate solution which was gently mixed. Compounds in 100% DMSO were added to the kinase reaction mixture by Acoustic technology (Echo550; nanoliter range) and the mixture was incubated for 20 min at room temperature. ^33P-ATP (Specific activity 10 uCi/uL) was added into the reaction mixture to initiate the reaction and the reaction mixture was incubated for 2 hours at room temperature. Radioactivity was detected by filter-binding method and kinase activity data were expressed as the percent remaining kinase activity in test samples compared to vehicle (dimethyl sulfoxide) reactions. IC50 values and curve fits were obtained using Prism (GraphPad Software).

| Compound | pEC50 [1] | pIC50 (ALK5) |
| --- | --- | --- |
| Cc1cccc(-c2nc(CN[C@@H](C)c3ccccc3)[nH]c2-c2ccc3ncnn3c2)n1 [Compound 12] | 6.00 to 7.00 | 5.00 to 6.00 |
| COC(=O)[C@@H](NCc1nc(-c2cccc(C)n2)c(-c2ccc3ncnn3c2)[nH]1)c1ccccc1 [Compound 16] | 6.00 to 7.00 | 7.30 to 10.00 |
| Cc1cccc(-c2nc(CNCCc3cccc(F)c3)[nH]c2-c2ccc3ncnn3c2)n1 [Compound 61] | 8.00 to 10.00 | – |
| Cc1cccc(-c2nc(CNCCc3c(F)cccc3F)[nH]c2-c2ccncc2)n1 [Compound 80] | 6.00 to 7.00 | – |
| Cc1cccc(-c2nc(CNCc3ccccc3-c3cccc(CNC(=O)OC(C)(C)C)c3)[nH]c2-c2ccc3ncnn3c2)n1 [Compound 30] | 6.00 to 7.00 | – |
| Cc1cccc(-c2nc(CNCc3ccccc3Oc3ccncc3)[nH]c2-c2ccc3ncnn3c2)n1 [Compound 55] | 5.00 to 6.00 | – |
| Cc1cccc(-c2nc(CNCc3ccccc3-c3cccnc3)[nH]c2-c2ccc3ncnn3c2)n1 [Compound 41] | 8.00 to 10.00 | – |
| Cc1cccc(-c2nc(CNCc3ccccc3C)[nH]c2-c2ccc3ncnn3c2)n1 [Compound 21] | 8.00 to 10.00 | – |
| Cc1cccc(-c2nc(CNCc3ccccc3-c3ccccc3)[nH]c2-c2ccc3ncccc3c2)n1 [Compound 91] | 7.00 to 8.00 | – |
| Cc1cccc(-c2nc(CNCc3cc(Cl)ccc3Cl)[nH]c2-c2ccc3ncnn3c2)n1 [Compound 5] | 7.00 to 8.00 | – |
| Cc1cccc(-c2nc(CNCc3ccccc3-c3ccccc3)[nH]c2-c2ccnc3ccccc23)n1 [Compound 69] | 6.00 to 7.00 | – |
| COc1ccccc1CCNCc1nc(-c2cccc(C)n2)c(-c2ccc3ncccc3n2)[nH]1 [Compound 84] | 8.00 to 10.00 | – |
| Cc1cccc(-c2nc(CNCc3ccccc3-c3ccccc3CN)[nH]c2-c2ccc3ncnn3c2)n1 [Compound 32] | 6.00 to 7.00 | – |
| Cc1cccc(-c2nc(CNCc3ccc(Cl)c(Cl)c3)[nH]c2-c2ccc3ncnn3c2)n1 [Compound 4] | 6.00 to 7.00 | – |
| Cc1cccc(-c2nc(CNCc3ccccc3)[nH]c2-c2ccc3ncnn3c2)n1 [Compound 1, 1-(5-([1,2,4]triazolo[1,5-a]pyridin-6-yl)-4-(6-methylpyridin-2-yl)-1H-imidazol-2-yl)-N-benzylmethanamine] | 8.00 to 10.00 | – |
| Cc1cccc(-c2nc(CNCc3ccccc3-c3cc(F)cc(F)c3)[nH]c2-c2ccc3ncnn3c2)n1 [Compound 39] | 7.00 to 8.00 | – |
| COc1cccc(CNCc2nc(-c3cccc(C)n3)c(-c3ccc4ncnn4c3)[nH]2)c1C [Compound 46] | 8.00 to 10.00 | – |
| COc1ccc(CNCc2nc(-c3cccc(C)n3)c(-c3ccc4ncnn4c3)[nH]2)cc1 [Compound 8] | 6.00 to 7.00 | – |
| Cc1cccc(-c2nc(CNCc3ccccc3-c3ccccc3CNC(=O)OC(C)(C)C)[nH]c2-c2ccc3ncnn3c2)n1 [Compound 29] | 6.00 to 7.00 | – |
| Cc1cccc(-c2nc(CNCc3cccc(-c4ccccc4)c3C)[nH]c2-c2ccc3ncnn3c2)n1 [Compound 49] | 7.00 to 8.00 | – |
| Cc1cccc(-c2nc(CNCc3ccccc3-c3ccccc3)[nH]c2-c2ccc3ncccc3n2)n1 [Compound 68] | 7.00 to 8.00 | – |
| Cc1cccc(-c2nc(CNCCc3ccc(F)cc3F)[nH]c2-c2ccc3ncnn3c2)n1 [Compound 63] | 8.00 to 10.00 | – |
| Cc1cccc(-c2nc(CNCc3ccccc3)[nH]c2-c2ccccn2)n1 [Compound 75] | 6.00 to 7.00 | – |
| Cc1cccc(-c2nc(CNCCc3c(F)cccc3F)[nH]c2-c2ccc3c(c2)OCO3)n1 [Compound 81] | 7.00 to 8.00 | – |
| Cc1cccc(-c2nc(CNCc3ccccc3-c3ccc(F)c(F)c3)[nH]c2-c2ccc3ncnn3c2)n1 [Compound 36] | 7.00 to 8.00 | – |
| Cc1cccc(-c2nc(CNCc3ccccc3C3CCCCC3)[nH]c2-c2ccc3ncnn3c2)n1 [Compound 43] | 6.00 to 7.00 | – |
| Cc1cccc(-c2nc(CNCc3ccccc3)[nH]c2-c2ccc3c(c2)OCO3)n1 [Compound 76] | 7.00 to 8.00 | – |
| Cc1cccc(-c2nc(CNCc3ccccc3C#N)[nH]c2-c2ccc3ncnn3c2)n1 [Compound 20] | 6.00 to 7.00 | – |
| Cc1cccc(-c2nc(CNCc3ccccc3CC(F)(F)F)[nH]c2-c2ccc3ncnn3c2)n1 [Compound 27] | 8.00 to 10.00 | – |
